Source: ChEMBL document CHEMBL1201862, “PubChem BioAssay data set” (2004)
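In this assay, cells in 96-well plates receive the compound at five concentrations for 48 hours. Endpoints are linearly interpolated between the surrounding concentrations. Abbreviation: GI50, concentration required for 50% inhibition of growth.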 Active and inactive are the calls of the source. No stated cut-off is given here; in the data, active = GI50 up to about 1.1 µM and inactive = higher.

What was measured:
Test in all cases: NCI anticancer screen, dose series, 48 h
HL-60 = tested on: HL-60
SK-MEL-5 = tested on: SK-MEL-5
RXF 393 = tested on: RXF 393
TK-10 = tested on: TK-10
SNB-75 = tested on: SNB-75
ACHN = tested on: ACHN
SK-MEL-2 = tested on: SK-MEL-2
M14 = tested on: M14
OVCAR-3 = tested on: OVCAR-3
PC-3 = tested on: PC-3
OVCAR-5 = tested on: OVCAR-5
OVCAR-8 = tested on: OVCAR-8
A498 = tested on: A498
NCI/ADR-RES = tested on: NCI/ADR-RES
OVCAR-4 = tested on: OVCAR-4
Malme-3M = tested on: Malme-3M
786-0 = tested on: 786-0
UACC-62 = tested on: UACC-62
CCRF-CEM = tested on: CCRF-CEM
DMS-114 = tested on: DMS-114

SMILES | GI50 (HL-60) | GI50 (SK-MEL-5) | GI50 (RXF 393) | GI50 (TK-10) | GI50 (SNB-75) | GI50 (ACHN) | GI50 (SK-MEL-2) | GI50 (M14) | GI50 (OVCAR-3) | GI50 (PC-3) | GI50 (OVCAR-5) | GI50 (OVCAR-8) | GI50 (A498) | GI50 (NCI/ADR-RES) | GI50 (OVCAR-4) | GI50 (Malme-3M) | GI50 (786-0) | GI50 (UACC-62) | GI50 (CCRF-CEM) | GI50 (DMS-114)
Cc1cc(O)nc2cc3oc4ccccc4c3cc12 | 17.6 µM (inactive) | 7.52 µM (inactive) | > 100 µM (inactive) | 30.6 µM (inactive) | > 100 µM (inactive) | 24.2 µM (inactive) | > 100 µM (inactive) | > 100 µM (inactive) | > 33.6 µM (inactive) | > 100 µM (inactive) | > 83.2 µM (inactive) | > 100 µM (inactive) | > 100 µM (inactive) | > 100 µM (inactive) | > 62.2 µM (inactive) | > 30.1 µM (inactive) | 25.2 µM (inactive) | 17.5 µM (inactive) | 11.5 µM (inactive) | –
CCCC(=O)c1c(NOC2OC(COC(C)=O)C(OC(C)=O)C(OC(C)=O)C2OC(C)=O)nc(OC)n(C)c1=O (configuration not stated) | – | > 100 µM (inactive) | > 100 µM (inactive) | > 100 µM (inactive) | > 100 µM (inactive) | > 100 µM (inactive) | > 100 µM (inactive) | > 100 µM (inactive) | – | – | > 100 µM (inactive) | > 100 µM (inactive) | – | – | > 100 µM (inactive) | – | > 100 µM (inactive) | > 100 µM (inactive) | > 100 µM (inactive) | > 100 µM (inactive)
Cc1cc(S(=O)(=O)Nc2nc(N)n(-c3cnc4ccccc4n3)n2)c(S)cc1Cl | > 100 µM (inactive) | > 100 µM (inactive) | 99.1 µM (inactive) | > 100 µM (inactive) | 22.7 µM (inactive) | > 100 µM (inactive) | > 100 µM (inactive) | > 100 µM (inactive) | > 100 µM (inactive) | > 100 µM (inactive) | > 100 µM (inactive) | > 100 µM (inactive) | 62.2 µM (inactive) | > 100 µM (inactive) | > 100 µM (inactive) | > 100 µM (inactive) | > 100 µM (inactive) | 49.7 µM (inactive) | 37.1 µM (inactive) | –
CC(=O)OC(C)(C)/N=N/c1ccc(Br)cc1 | 0.653 µM (active) | 0.209 µM (active) | 20.6 µM (inactive) | 23.7 µM (inactive) | > 53.5 µM (inactive) | 1.33 µM (inactive) | > 85.7 µM (inactive) | 0.277 µM (active) | 13.6 µM (inactive) | 24.3 µM (inactive) | 1.66 µM (inactive) | 17.5 µM (inactive) | > 87.5 µM (inactive) | 14.4 µM (inactive) | 9.18 µM (inactive) | > 43.1 µM (inactive) | 22.9 µM (inactive) | 0.052 µM (active) | 10.2 µM (inactive) | –
COc1cc2c3c([nH]c2c(OC)c1OC)CCN(Cc1ccccc1)C3 | 21.4 µM (inactive) | 18.9 µM (inactive) | > 100 µM (inactive) | 21.7 µM (inactive) | 42.1 µM (inactive) | 47.8 µM (inactive) | 22.6 µM (inactive) | 14.1 µM (inactive) | 64.6 µM (inactive) | 55.1 µM (inactive) | 23.8 µM (inactive) | > 100 µM (inactive) | 22.3 µM (inactive) | 29.9 µM (inactive) | 64.7 µM (inactive) | 16.6 µM (inactive) | 22.3 µM (inactive) | 32.3 µM (inactive) | 17.7 µM (inactive) | –
CC(=O)OC1=C(c2ccccc2)S(=O)(=O)c2ccccc21 | > 100 µM (inactive) | > 100 µM (inactive) | 64 µM (inactive) | > 100 µM (inactive) | > 100 µM (inactive) | > 100 µM (inactive) | > 100 µM (inactive) | > 100 µM (inactive) | > 100 µM (inactive) | > 100 µM (inactive) | > 100 µM (inactive) | > 100 µM (inactive) | > 100 µM (inactive) | > 100 µM (inactive) | > 100 µM (inactive) | > 100 µM (inactive) | > 100 µM (inactive) | > 100 µM (inactive) | 96.4 µM (inactive) | –
CCOc1cc(NC(C)=O)ccc1C(=O)NNC(=O)c1ccccc1OC(C)=O | 4.28 µM (inactive) | 5.78 µM (inactive) | 3.41 µM (inactive) | 1.5 µM (inactive) | 8.05 µM (inactive) | 3.79 µM (inactive) | 24.3 µM (inactive) | 7.18 µM (inactive) | 3.24 µM (inactive) | 11.1 µM (inactive) | 10.2 µM (inactive) | 6.3 µM (inactive) | 16.1 µM (inactive) | 17.7 µM (inactive) | 4.32 µM (inactive) | 21.7 µM (inactive) | 4.53 µM (inactive) | 8.36 µM (inactive) | 4.22 µM (inactive) | –
O=C1CCSc2c(cnc3ccccc23)N1 | > 100 µM (inactive) | > 100 µM (inactive) | 34.4 µM (inactive) | 71.6 µM (inactive) | 27.7 µM (inactive) | > 100 µM (inactive) | 80 µM (inactive) | > 100 µM (inactive) | 65.5 µM (inactive) | 49.7 µM (inactive) | > 100 µM (inactive) | > 100 µM (inactive) | 32.1 µM (inactive) | > 100 µM (inactive) | 67.3 µM (inactive) | > 100 µM (inactive) | > 100 µM (inactive) | > 100 µM (inactive) | > 100 µM (inactive) | –
COc1ccc2c(c1)C1Oc3ccccc3CC1CO2 (configuration not stated) | 21.2 µM (inactive) | 32.6 µM (inactive) | 24.9 µM (inactive) | 73.1 µM (inactive) | 28.4 µM (inactive) | 60.1 µM (inactive) | 21.5 µM (inactive) | 75.3 µM (inactive) | 57.7 µM (inactive) | 46.1 µM (inactive) | > 100 µM (inactive) | 83.9 µM (inactive) | 34.4 µM (inactive) | 42.1 µM (inactive) | 43.9 µM (inactive) | 54 µM (inactive) | 47.4 µM (inactive) | 98.2 µM (inactive) | > 100 µM (inactive) | –
COc1cc2c(c(OC)c1OC)-c1ccc(OC)c(=O)cc1C(NC(=O)CCCCCNc1ccc(N=[N+]=[N-])cc1[N+](=O)[O-])CC2 (configuration not stated) | < 0.01 µM (active) | < 0.01 µM (active) | < 0.01 µM (active) | 0.0426 µM (active) | 0.246 µM (active) | 0.0271 µM (active) | < 0.01 µM (active) | < 0.01 µM (active) | < 0.01 µM (active) | < 0.01 µM (active) | < 0.01 µM (active) | < 0.01 µM (active) | < 0.01 µM (active) | 0.422 µM (active) | 1.56 µM (inactive) | < 0.01 µM (active) | < 0.01 µM (active) | < 0.01 µM (active) | < 0.01 µM (active) | –
Nc1cccc(C2CCCc3c2[nH]c2ccccc32)c1 (configuration not stated) | 19.5 µM (inactive) | 17.4 µM (inactive) | 15.3 µM (inactive) | 32.4 µM (inactive) | 11.9 µM (inactive) | 25 µM (inactive) | 17.5 µM (inactive) | 22.3 µM (inactive) | 26.7 µM (inactive) | 16.1 µM (inactive) | 16.3 µM (inactive) | 17.7 µM (inactive) | 15 µM (inactive) | 17.7 µM (inactive) | 25.5 µM (inactive) | 18.1 µM (inactive) | 18.2 µM (inactive) | 15.6 µM (inactive) | 15.3 µM (inactive) | –
Cc1ccc(C(=O)N/N=C(\N=N\c2cccc(Cl)c2)c2ccc(N(CCC#N)CCC#N)cc2C)cc1 | 56.9 µM (inactive) | > 100 µM (inactive) | 29.4 µM (inactive) | > 100 µM (inactive) | 75.9 µM (inactive) | > 100 µM (inactive) | > 100 µM (inactive) | > 100 µM (inactive) | 93.3 µM (inactive) | > 100 µM (inactive) | > 100 µM (inactive) | 79.4 µM (inactive) | > 100 µM (inactive) | > 100 µM (inactive) | > 100 µM (inactive) | > 100 µM (inactive) | 82 µM (inactive) | > 100 µM (inactive) | 97.1 µM (inactive) | –
[N-]=[N+]=Nc1ccc2c(c1)Sc1ccccc1N2CCCCN1CCN(C(=O)CCNC(=O)Cc2ccc(C(=O)c3ccccc3)cc2)CC1 | 2.54 µM (inactive) | 2.11 µM (inactive) | 10.9 µM (inactive) | 13.2 µM (inactive) | 5.21 µM (inactive) | 3.61 µM (inactive) | 4.29 µM (inactive) | 4.75 µM (inactive) | 4.5 µM (inactive) | 3.1 µM (inactive) | 6.53 µM (inactive) | 7.03 µM (inactive) | 10 µM (inactive) | 4.05 µM (inactive) | 3.48 µM (inactive) | 5.2 µM (inactive) | 3.76 µM (inactive) | 6.05 µM (inactive) | 1.79 µM (inactive) | –
COC(=O)/C=C\C(C#N)(C#N)/N=C/c1ccccc1 | 2.25 µM (inactive) | 13.5 µM (inactive) | 1.94 µM (inactive) | 2.25 µM (inactive) | 6.35 µM (inactive) | 2.3 µM (inactive) | 16.7 µM (inactive) | 2.25 µM (inactive) | 2.11 µM (inactive) | 5.94 µM (inactive) | 19 µM (inactive) | 1.91 µM (inactive) | 18.7 µM (inactive) | 2.88 µM (inactive) | 4.22 µM (inactive) | 2.21 µM (inactive) | 1.63 µM (inactive) | 14.5 µM (inactive) | 0.337 µM (active) | –
C1=Cc2nc1c(-c1ccncc1)c1ccc([n-]1)c(-c1ccncc1)c1nc(c(-c3ccncc3)c3ccc([n-]3)c2-c2ccncc2)C=C1.[Zn+2] | > 100 µM (inactive) | > 100 µM (inactive) | – | > 100 µM (inactive) | > 100 µM (inactive) | > 100 µM (inactive) | > 100 µM (inactive) | > 100 µM (inactive) | > 100 µM (inactive) | – | > 100 µM (inactive) | > 100 µM (inactive) | – | – | > 100 µM (inactive) | > 100 µM (inactive) | > 100 µM (inactive) | > 100 µM (inactive) | > 100 µM (inactive) | > 100 µM (inactive)
